One experiment deals with valve myofibroblasts. The experiment can be described thus: Von Kossa staining of cultured valve myofibroblasts (calcification / mineralization). Particulars: for osteogenic differentiation and calcification of valve myofibroblasts (Von kossa staining): 1, 10 or 100 μg/ml, fourteen days. Type of experiment: cell-based, rat. The method, then:
The present inventors have now further explored the calcification process in an attempt to specifically identify targets for interfering and prevention thereof. Therefore, the inventors next examined myofibroblasts obtained from the aortic valve of wild type rats, cultured in 24 well plates.
Myofibroblasts were incubated with PTH ([…]), or phosphate, 1, 10 or 100 μg/ml) for fourteen days. As shown by the Von kossa (calcium) staining presented by FIG. 7, the phosphate treatment, but not the PTH, induces osteogenic differentiation and calcification of valve myofibroblasts.
To test the possibility that inhibition of PIT1 would decrease mineralization, valve myofibroblasts were incubated with 10 μg/ml phosphate, or with phosphate and 0.5 mM foscarnet, the specific PIT1 inhibitor for 7 days.

Experiment [1] relates to high Adenine, high phosphate rat model. The experiment can be described thus: MSCT assessment of valve calcification (Agatston score), foscarnet study. Type of experiment: in vivo. Particulars: 5 mg/kg foscarnet i.p. (group B) vs diet group A, ninth week, P=0.05.
Experimental: MSCT scanning without contrast was performed on all rats (Brilliance, Philips Medical Systems, Groningen, Netherlands) on the ninth week. Study parameters were: 120 KVp, 300 mAs, slice thickness 0.67 mm, increment 0.3 mm. The scan was analyzed by an operator blinded to the study groups, on an off-line CT workstation. The Agatston Score was calculated by multiplying the area of a calcified lesion with a weighted CT attenuation score dependent on the maximal CT attenuation (HU) within a lesion as previously described [Agatston, A. S., et al. Journal of the American College of Cardiology 15:827-832 (1990)]. In order to asses the effect of foscarnet on treating AVC in vivo, the high Adenine, high phosphate rat model was used. Three different groups (10 rats each) were fed daily with the Adenine diet (diet group) for 6 weeks (Group A). Group B (n=9) followed the same protocol and was also treated with 5 mg/kg foscarnet administered intraperitoneally (i.p.). The control group C, received daily chew. Renal function tests, electrolytes were followed for nine weeks. Multislice computed tomography (MSCT) was performed at the ninth week. Calcium scores were calculated using the Agatston score.
The subject of the next experiment is TNF-α. The experiment can be described thus: TNF-α levels in supernatants of myofibroblasts. It is filed as cell-based, rat. Particulars: myofibroblasts treated with foscarnet; 69 pg/ml without. An excerpt: (§1) In order to investigate whether the beneficial effect of foscarnet on the calcification process also affects immunomodulatory parameters, the inventors the effect of foscarnet on the levels of cytokines that are known as having a role in osteoblast transformation and maturation. Therefore, levels of TNF-α and IL-6 were next measured in supernatants of myofibroblasts treated with foscarnet. […] IL-6 levels.

A further experiment concerns IL-6. The experiment can be described thus: IL-6 levels in supernatants of myofibroblasts. Type of experiment: cell-based, rat. To be noted: myofibroblasts treated with foscarnet.
Source text: as §1

Regarding phosphate, the “osteogenic differentiation and calcification of valve myofibroblasts (Von kossa staining)” value in the experiment on valve myofibroblasts is on record as “induces”.
Consider `O=C(O)P(=O)(O)O` [foscarnet], for which the “cell mineralization (Von kossa staining)” value with valve myofibroblasts (10 μg/ml phosphate plus 0.5 mM foscarnet, 7 days) is “completely inhibited”. For the same molecule, the entries for the “AVC, Agatston score (MSCT)” value in experiment [1] and in experiment [1] (listed as Forscarnet) were 21 and “significant decrease”, respectively. In addition, in the experiment with TNF-α, the “TNF-α levels in supernatants” value amounted to 5 pg/mL. Further, the “IL-6 levels in supernatants” value in the experiment with IL-6 was “no effect”.

B1: PTH: peptide hormone, the most important regulator of calcium and phosphate metabolism (peptide, UniProt P01270 32-115, looked up)
Parathyroid hormone: SVSEIQLMHNLGKHLNSMERVEWLRKKLQDVHNFVALGAPLAPRDAGSQRPRKKEDNVLVESHEKSLGEADKADVNVLTKAKSQ
modifications: Parathyroid hormone
B1: in the experiment with valve myofibroblasts, the “osteogenic differentiation and calcification of valve myofibroblasts (Von kossa staining)” value is “not”.

(Values after patent US20100249048A1, “BETA GLYCOLIPIDS FOR THE TREATMENT OF CALCIFICATION RELATED DEGENERATIVE DISORDERS” (priority 2007, published 2010).)
